Assay results as given in patent US20060128724A1, “Pyrazole-substituted aminoheteroaryl compounds as protein kinase inhibitors” (AGOURON PHARMACEUTICALS, INC., priority 2004, published 2006).
Where two headings read alike, the source gives them in different places.

Molecular target: T1, c-MET (HGFR) (Homo sapiens, UniProt P08581)
T1 construct: purchased Upstate 14-526
Assay: HGFR Continuous-Coupled Spectrophotometric Assay
Format: biochemical
Conditions: Met-2 substrate peptide, 50 nM HGFR, 37° C.
How it was run: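 Tyrosine kinase activity of 50 nM HGFR on the activation-loop Met-2 peptide, followed as NADH consumption at 340 nm over 10 min at 37 °C in a pyruvate kinase/LDH coupled system, HEPES pH 7.5 buffer with MgCl2 and DTT.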

T1 sequence (P08581 974-1390 limits assumed): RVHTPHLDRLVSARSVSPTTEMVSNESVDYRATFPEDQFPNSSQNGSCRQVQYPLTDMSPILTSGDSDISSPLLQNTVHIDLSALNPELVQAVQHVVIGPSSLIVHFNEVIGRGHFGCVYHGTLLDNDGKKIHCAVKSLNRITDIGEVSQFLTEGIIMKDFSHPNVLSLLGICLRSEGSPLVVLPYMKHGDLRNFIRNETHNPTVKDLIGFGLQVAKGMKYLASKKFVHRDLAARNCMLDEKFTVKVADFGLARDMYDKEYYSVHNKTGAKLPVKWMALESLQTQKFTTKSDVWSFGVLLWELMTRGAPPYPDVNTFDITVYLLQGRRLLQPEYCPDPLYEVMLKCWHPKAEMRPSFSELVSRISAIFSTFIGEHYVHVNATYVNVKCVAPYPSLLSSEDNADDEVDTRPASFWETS

| SMILES | Ki (read-out: c-Met Ki) | Ki (read-out: Met Ki) |
| --- | --- | --- |
| C[C@@H](Oc1cc(-c2cnn(C3CCNCC3)c2)cnc1N)c1c(F)ccc(F)c1Cl [Example 72, 3-[(R)-1-(2-Chloro-3,6-difluoro-phenyl)-ethoxy]-5-(1-piperidin-4-yl-1H-pyrazol-4-yl)-pyridin-2-ylamine] | 90 nM | – |
| CC(Oc1cc(-c2cnn(C(C)(C)COCCN3CCCC3)c2)cnc1N)c1c(Cl)ccc(F)c1Cl (centres unmarked) [Example 62, 3-[1-(2,6-Dichloro-3-fluoro-phenyl)-ethoxy]-5-{1-[1,1-dimethyl-2-(2-pyrrolidin-1-yl-ethoxy)-ethyl]-1H-pyrazol-4-yl}-pyridin-2-ylamine] | 229 nM | – |
| CC(Oc1cc(-c2cnn(C(C)(C)C(=O)NCCN3CCOCC3)c2)cnc1N)c1c(Cl)ccc(F)c1Cl (centres unmarked) [Example 19, 2-(4-{6-Amino-5-[1-(2,6-dichloro-3-fluoro-phenyl)-ethoxy]-pyridin-3-yl}-pyrazol-1-yl)-N-(2-morpholin-4-yl-ethyl)-isobutyramide] | 140 nM | – |
| CC(Oc1cc(-c2cnn(C(C)(C)C(=O)N3CC[C@H](O)C3)c2)cnc1N)c1c(Cl)ccc(F)c1Cl (stereo partly drawn) [Example 56, 2-(4-{6-Amino-5-[1-(2,6-dichloro-3-fluoro-phenyl)-ethoxy]-pyridin-3-yl}-pyrazol-1-yl)-1-((S)-3-hydroxy-pyrrolidin-1-yl)-2-methyl-propan-1-one] | 470 nM | – |
| COc1cc(F)c(Cl)c(C(C)Oc2cc(-c3cnn(C4CCNCC4)c3)cnc2N)c1Cl (centres unmarked) [Example 148, 3-[1-(2,6-Dichloro-3-fluoro-5-methoxy-phenyl)-ethoxy]-5-(1-peridin-4-yl-1H-pyrazol-4-yl)-pyridin-ylamine] | – | 23 nM |
| CC(Oc1cc(-c2cnn(C3CCNCC3)c2)cnc1N)c1c(Cl)c(F)cc(F)c1Cl (centres unmarked) [Example 146, 3-[1-(2,6-Dichloro-3,5-difluoro-phenyl)-ethoxy]-5-(1-piperidin-4-yl-1H-pyrazol-4-yl)-pyridin-2-ylamine] | – | 30 nM |
| CC(Oc1cc(-c2cnn(C(C)(C)CN3CC[C@H](O)C3)c2)cnc1N)c1c(Cl)ccc(F)c1Cl (stereo partly drawn) [Example 61, (S)-1-[2-(4-{6-Amino-5-[1-(2,6-dichloro-3-fluoro-phenyl)-ethoxy]-pyridin-3-yl}-pyrazol-1-yl)-2-methyl-propyl]-pyrrolidin-3-ol] | 70 nM | – |
| CC(Oc1cc(-c2cnn(C(C)(C)C(=O)O)c2)cnc1N)c1c(Cl)ccc(F)c1Cl (centres unmarked) [Example 12, 2-(4-{6-Amino-5-[1-(2,6-dichloro-3-fluoro-phenyl)-ethoxy]-pyridin-3-yl}-pyrazol-1-yl)-2-methyl-propionic acid] | 180 nM | – |
| CC(Oc1cc(-c2cnn(C)c2)cnc1N)c1c(Cl)c(F)cc(OC2CNC2)c1Cl (centres unmarked) [Example 155, 3-{1-[3-(Azetidin-3-yloxy)-2,6-dichloro-5-fluoro-phenyl]-ethoxy}-5-(1-methyl-1H-pyrazol-4-yl)-pyridin-2-ylamine] | – | 29 nM |
| CC(Oc1cc(-c2cnn(C[C@H]3CCCN3)c2)cnc1N)c1c(Cl)ccc(F)c1Cl (stereo partly drawn) [Example 63, 3-[1-(2,6-Dichloro-3-fluoro-phenyl)-ethoxy]-5-(1-(R)-1-pyrrolidin-2-ylmethyl-1H-pyrazol-4-yl)-pyridin-2-ylamine] | 72 nM | – |
| CC(Oc1cccnc1N)c1cc(F)ccc1C#N (centres unmarked) [Example 129, 2-[1-(2-Amino-pyridin-3-yloxy)-ethyl]-4-fluoro-benzonitrile] | – | 6460 nM |
| CCOC(=O)c1cnn(-c2cnc(N)c(OC(C)c3c(Cl)ccc(F)c3Cl)c2)c1 (centres unmarked) [Example 80, 1-{6-Amino-5-[1-(2,6-dichloro-3-fluoro-phenyl)-ethoxy]-pyridin-3-yl}-1H-pyrazole-4-carboxylic acid ethyl ester] | 2050 nM | – |
| CC(Oc1cc(-c2cnn(C3CCNCC3)c2)cnc1N)c1cc(F)ccc1Br (centres unmarked) [Example 128, 3-[1-(2-Bromo-5-fluoro-phenyl)-ethoxy]-5-(1-piperidin-4-yl-1H-pyrazol-4-yl)-pyridin-2-ylamine] | – | 349 nM |
| C[C@@H](Oc1nc(-c2cn[nH]c2)cnc1N)c1c(Cl)ccc(F)c1Cl [Example 67, 3-[(R)-1-(2,6-Dichloro-3-fluoro-phenyl)-ethoxy]-5-(1H-pyrazol-4-yl)-pyrazin-2-ylamine] | 65 nM | – |
| CC(Oc1cc(-c2cnn(CC(C)(C)C)c2)cnc1N)c1c(Cl)ccc(F)c1Cl (centres unmarked) [Example 23, 3-[1-(2,6-Dichloro-3-fluoro-phenyl)-ethoxy]-5-[1-(2,2-dimethyl-propyl)-1H-pyrazol-4-yl]-pyridin-2-ylamine] | 120 nM | – |
| Cc1ccn(-c2cnc(N)c(OC(C)c3c(Cl)ccc(F)c3Cl)c2)n1 (centres unmarked) [Example 77, 3-[1-(2,6-Dichloro-3-fluoro-phenyl)-ethoxy]-5-(3-methyl-pyrazol-1-yl)-pyridin-2-ylamine] | 1920 nM | – |

Now from value to compound:

| Ki (read-out: c-Met Ki) | Ki (read-out: Met Ki) | SMILES |
| --- | --- | --- |
| 30 nM | – | C[C@@H](Oc1nc(-c2cnn(C3CCN(C)CC3)c2)cnc1N)c1c(Cl)ccc(F)c1Cl [Example 69, 3-[(R)-1-(2,6-Dichloro-3-fluoro-phenyl)-ethoxy]-5-[1-(1-methyl-piperidin-4-yl)-1H-pyrazol-4-yl]-pyrazin-2-ylamine] |
| 41.5 nM | – | CC(Oc1cc(-c2cnn(C[C@@H]3CCCN3)c2)cnc1N)c1c(Cl)ccc(F)c1Cl (stereo partly drawn) [Example 64, 3-[1-(2,6-Dichloro-3-fluoro-phenyl)-ethoxy]-5-(i-(S)-1-pyrrolidin-2-ylmethyl-1H-pyrazol-4-yl)-pyridin-2-ylamine] |
| 38 nM | – | CC(Oc1cc(-c2cnn(C3CN(CC4CC4)C3)c2)cnc1N)c1c(Cl)ccc(F)c1Cl (centres unmarked) [Example 6, 5-{1-[1-(cyclopropylmethyl)azetidin-3-yl]-1H-pyrazol-4-yl}-3-[1-(2,6-dichloro-3-fluorophenyl)ethoxy]pyridin-2-amine] |
| 50 nM | – | CC(Oc1cc(-c2cnn(C3CN(CCO)C3)c2)cnc1N)c1c(Cl)ccc(F)c1Cl (centres unmarked) [Example 102, 2-[3-(4-{6-amino-5-[1-(2,6-dichloro-3-fluorophenyl)ethoxy]pyridin-3-yl}11H-pyrazol-1-yl)azetidin-1-yl]ethanol] |
| 19 nM | – | CCOC(=O)N1CCC(n2cc(-c3cnc(N)c(OC(C)c4c(Cl)ccc(F)c4Cl)c3)cn2)CC1 (centres unmarked) [Example 101, ethyl 4-(4-{6-amino-5-[1-(2,6-dichloro-3-fluorophenyl)ethoxy]pyridin-3-yl}-1H-pyrazol-1-yl)piperidine-1-carboxylate] |
| 32 nM | – | CC(=O)N1CC(n2cc(-c3cnc(N)c(OC(C)c4c(Cl)ccc(F)c4Cl)c3)cn2)C1 (centres unmarked) [Example 110, 5-[1-(1-acetylazetidin-3-yl)-1H-pyrazol-4-yl]-3-[1-(2,6-dichloro-3-fluorophenyl)ethoxy]pyridin-2-amine] |
| 29 nM | – | CC(=O)N1CC(Cn2cc(-c3cnc(N)c(OC(C)c4c(Cl)ccc(F)c4Cl)c3)cn2)C1 (centres unmarked) [Example 106, 5-{1-[(1-acetylazetidin-3-yl)methyl]-1H-pyrazol-4-yl}-3-[1-(2,6-dichloro-3-fluorophenyl)ethoxy]pyridin-2-amine] |
| 4 nM | – | C[C@@H](Oc1cc(-c2cnn(C3CCN(C(=O)CO)CC3)c2)cnc1N)c1c(Cl)ccc(F)c1Cl [Example 47, 1-[4-(4-{6-Amino-5-[(R)-1-(2,6-dichloro-3-fluoro-phenyl)-ethoxy]-pyridin-3-yl}-pyrazol-1-yl)-piperidin-1-yl]-2-hydroxy-ethanone] |
| 60 nM | – | CC(Oc1cc(-c2cnn(CC3CC4CCC3O4)c2)cnc1N)c1c(Cl)ccc(F)c1Cl (centres unmarked) [Example 28, 3-[1-(2,6-Dichloro-3-fluoro-phenyl)-ethoxy]-5-[1-(7-oxa-bicyclo[2.2.1]hept-2-ylmethyl)-1H-pyrazol-4-yl]-pyridin-2-ylamine] |
| 40 nM | – | CC(Oc1cc(-c2cnn([C@H](C)C(=O)NCCCN(C)C)c2)cnc1N)c1c(Cl)ccc(F)c1Cl (stereo in doubt) [Example 74, 2-(4-{6-Amino-5-[1-(2,6-dichloro-3-fluoro-phenyl)-ethoxy]-pyridin-3-yl}-pyrazol-1-yl)-N-(3-dimethylamino-propyl)-propionamide] |
| 15 nM | – | C[C@@H](Oc1nc(-c2cnn(C3CCN(C(=O)CO)CC3)c2)cnc1N)c1c(Cl)ccc(F)c1Cl [Example 68, 1-[4-(4-{5-Amino-6-[(R)-1-(2,6-dichloro-3-fluoro-phenyl)-ethoxy]-pyrazin-2-yl}-pyrazol-1-yl)-piperidin-1-yl]-2-hydroxy-ethanone] |
| 61 nM | – | CC(Oc1cc(-c2cnn(CC3COCO3)c2)cnc1N)c1c(Cl)ccc(F)c1Cl (centres unmarked) [Example 84, 3-[1-(2,6-Dichloro-3-fluoro-phenyl)-ethoxy]-5-(1-[1,3]dioxolan-4-ylmethyl-1H-pyrazol-4-yl)-pyridin-2-ylamine] |
| 14 nM | – | CC(Oc1cc(-c2cnn(C3CCCS(=O)(=O)C3)c2)cnc1N)c1c(Cl)ccc(F)c1Cl (centres unmarked) [Example 117, 3-[1-(2,6-dichloro-3-fluorophenyl)ethoxy]-5-[1-(1,1-dioxidotetrahydro-2H-thiopyran-3-yl)-1H-pyrazol-4-yl]pyridin-2-amine] |
| 62 nM | – | CC(Oc1cc(-c2cnn(CC3(O)CCNCC3)c2)cnc1N)c1c(Cl)ccc(F)c1Cl (centres unmarked) [Example 4, 4-[(4-{6-amino-5-[1-(2,6-dichloro-3-fluorophenyl)ethoxy]pyridin-3-yl}1H-pyrazol-1-yl)methyl]piperidin-4-ol] |
| 30 nM | – | CC(Oc1cc(-c2cnn(CC3CCN(C(=O)CO)CC3)c2)cnc1N)c1c(Cl)ccc(F)c1Cl (centres unmarked) [Example 85, 1-[4-(4-{6-Amino-5-[1-(2,6-dichloro-3-fluoro-phenyl)-ethoxy]-pyridin-3-yl}-pyrazol-1-ylmethyl)-piperidin-1-yl]-2-hydroxy-ethanone] |
| 40 nM | – | CC(Oc1cc(-c2cnn(C3CCOC3)c2)cnc1N)c1c(Cl)ccc(F)c1Cl (centres unmarked) [Example 27, 3-[1-(2,6-Dichloro-3-fluoro-phenyl)-ethoxy]-5-[1-(tetrahydro-furan-3-yl)-1H-pyrazol-4-yl]-pyridin-2-ylamine] |
